Active and inactive are the calls of the source. No cut-off for these calls is given here.
What was measured:
[1] = Binding affinity to DNA STAT3 binding site of PD-L1 promoter region (unknown origin) by electrophoretic mobility shift assay
[2] = Binding affinity to human single stranded DNA (unknown origin) by electrophoretic mobility shift assay
HCC827 [3] = experiment: Inhibition of PD-L1 protein expression in IFNgamma-induced human HCC827 cells measured for 36 hrs by Western blot analysis; format: functional, cell-based; conditions: dose 1.25-10 µM
MRC5 = experiment: Cytotoxicity against human MRC5 cells at 32 uM by standard CCK-8 assay; format: toxicity, cell-based; conditions: mrc5, 32 µM
HCC827 [4] = experiment: Cytotoxicity against human HCC827 cells incubated for 36 hrs by standard CCK-8 assay; format: functional, cell-based; conditions: for IC50: HCC827, 36 h
dsDNA [5] = experiment: Binding affinity to human wild-type double stranded DNA assessed as thermal stability of compound-DNA complex by measuring change in melting temperature at stoichiometry ratio 1:1 by UV melting assay; format: nucleic-acid assay
MDA-MB-231 [6] = experiment: Cytotoxicity against human MDA-MB-231 cells incubated for 36 hrs by standard CCK-8 assay; format: functional, cell-based; conditions: for IC50: MDA-MB-231, 36 h
MDA-MB-231 [7] = experiment: (§1) Induction of T-cell mediated cytotoxicity against human MDA-MB-231 cells co-cultured with Jurkat cells assessed as apoptotic cells at 8 uM incubated for 36 hrs by standard CCK-8 assay relative to control; format: functional
HCC827 [8] = experiment: Induction of T-cell mediated cell killing in human HCC827 cells co-cultured with PMA-activated Jurkat T cells assessed as IL-2 production at 8 uM by ELISA relative to control; format: functional
MDA-MB-231 [9] = experiment: Induction of T-cell mediated cell killing in human MDA-MB-231 cells co-cultured with PMA-activated Jurkat T cells assessed as IL-2 production at 8 uM by ELISA relative to control; format: functional
MDA-MB-231 [10] = experiment: Inhibition of PD-L1 protein expression in IFNgamma-induced human MDA-MB-231 cells measured for 36 hrs by Western blot analysis; format: functional, cell-based; conditions: dose 1.25-10 µM
Jurkat = experiment: Cytotoxicity against human Jurkat cells at 8 uM incubated for 36 hrs by standard CCK-8 assay; format: toxicity, cell-based
Homo sapiens = species on record: Homo sapiens; experiment: Binding affinity to DNA STAT3 binding site of PD-L1 promoter region assessed as effect on binding of STAT3 protein to STAT3 binding site of PD-L1 promoter region by competitive electrophoretic mobility shift assay
dsDNA [11] = experiment: Binding affinity to human wild-type double stranded DNA assessed as thermal stability of compound-DNA complex by measuring change in melting temperature at stoichiometry ratio 1:0.5 by UV melting assay; format: nucleic-acid assay
HCC827 [12] = experiment: (§2) Induction of T-cell mediated cytotoxicity against human HCC827 cells co-cultured with Jurkat cells assessed as apoptotic cells at 8 uM incubated for 36 hrs by standard CCK-8 assay relative to control; format: functional
HCC827 [13] = experiment: Antitumour activity against human HCC827 cells assessed as measuring interleukin-2 levels by ELISA; format: functional
dsDNA [14] = experiment: Binding affinity to human wild-type double stranded DNA assessed as thermal stability of compound-DNA complex by measuring change in melting temperature at stoichiometry ratio 1:4 by UV melting assay; format: nucleic-acid assay
MDA-MB-231 [15] = experiment: Antitumour activity against human MDA-MB-231 cells assessed as measuring interleukin-2 levels by ELISA; format: functional
[16] = as §1; format: functional
[17] = as §2; format: functional

## CC(=O)Nc1cc(C(=O)Nc2cc(C(=O)Nc3cc(C(=O)Nc4cn(C)c(C(=O)NCCC(=O)Nc5cn(C)c(C(=O)NCCCC(=O)Nc6cc(C(=O)Nc7cc(C(=O)NCCC(=O)Nc8cn(C)c(C(=O)Nc9cn(C)c(C(=O)Nc%10cc(C(=O)NCCC(=O)NCCCN(C)C)n(C)c%10)n9)n8)n(C)c7)n(C)c6)n5)n4)n(C)c3)n(C)c2)n(C)c1.Cl
[1]
  Activity: inactive
[2]
  Activity: inactive
HCC827 [3]
  inhibition: inactive
MRC5
  Activity: Non-Toxic
HCC827 [4]
  IC50: > 200 µM
HCC827 [4]; dose 2-32 µM
  Activity: inactive
dsDNA [5]
  ΔTm: 0.4 °C
MDA-MB-231 [6]
  IC50: > 200 µM
MDA-MB-231 [6]; dose 2-32 µM
  Activity: inactive
MDA-MB-231 [7]
  Activity: inactive
HCC827 [8]
  Activity: inactive
MDA-MB-231 [9]
  Activity: inactive
MDA-MB-231 [10]
  inhibition: inactive
Jurkat
  Activity: Non-Toxic
Homo sapiens
  Activity: inactive
dsDNA [11]
  ΔTm: 0.2 °C
HCC827 [12]
  Activity: inactive
HCC827 [13]
  Activity: inactive
dsDNA [14]
  ΔTm: 0.7 °C
MDA-MB-231 [15]
  Activity: inactive

## COc1nc(OCc2cccc(-c3ccccc3)c2C)ccc1CNCCNC(C)=O
HCC827 [4]
  IC50: 8.41 µM
MDA-MB-231 [6]
  IC50: 7.92 µM
[16]
  Activity: 87.58%
[17]
  Activity: 70.87%
